Reference: the supplement of paper PMC10307832

Legend:
Assay in all cases: relative viability (nuclei count vs DMSO), 5 days (fraction); higher = more cells survive
Apatinib + Bortezomib = compound: N#CC1(c2ccc(NC(=O)c3cccnc3NCc3ccncc3)cc2)CCCC1 [Apatinib] + CC(C)C[C@H](NC(=O)[C@H](Cc1ccccc1)NC(=O)c1cnccn1)B(O)O [Bortezomib] (partner 0.002 µM)
Summary of the method: (§1)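 For relative viability, nuclei counts in treated wells were divided by those in vehicle wells. Lung cancer cell lines had been pin-tool dosed in 1536-well plates the day after seeding and cultured for 5 days, then fixed and stained in one step (final 0.05% Triton X-100, 1% formaldehyde, 1 ug/ml Hoechst) and imaged at 4×. Doses were one drug alone or a fixed anchor-drug dose plus five library-drug doses (not always all listed) in √10 steps, and values are duplicate-plate medians.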

Apatinib + Pemetrexed = compound: N#CC1(c2ccc(NC(=O)c3cccnc3NCc3ccncc3)cc2)CCCC1 [Apatinib] + Nc1nc2[nH]cc(CCc3ccc(C(=O)N[C@@H](CCC(=O)O)C(=O)O)cc3)c2c(=O)[nH]1 [Pemetrexed] (partner 0.2 µM)
Summary of the method: as §1

Apatinib + Tozasertib = compound: N#CC1(c2ccc(NC(=O)c3cccnc3NCc3ccncc3)cc2)CCCC1 [Apatinib] + Cc1cc(Nc2cc(N3CCN(C)CC3)nc(Sc3ccc(NC(=O)C4CC4)cc3)n2)n[nH]1 [Tozasertib] (partner 0.1 µM)
Summary of the method: as §1

Metformin + Dasatinib = compound: CN(C)C(=N)NC(=N)N [Metformin] + Cc1nc(Nc2ncc(C(=O)Nc3c(C)cccc3Cl)s2)cc(N2CCN(CCO)CC2)n1 [Dasatinib] (partner 0.075 µM)
Summary of the method: as §1

## NCI-H1437
Apatinib + Bortezomib; first compound 0.08 µM
  relative viability: 0.52
Apatinib + Bortezomib; first compound 0.253 µM
  relative viability: 0.526
Apatinib + Bortezomib; first compound 0.8 µM
  relative viability: 0.461
Apatinib + Bortezomib; first compound 2.53 µM
  relative viability: 0.434
Apatinib + Bortezomib; first compound 8 µM
  relative viability: 0.439
Apatinib + Pemetrexed; first compound 0.08 µM
  relative viability: 0.328
Apatinib + Pemetrexed; first compound 0.253 µM
  relative viability: 0.293
Apatinib + Pemetrexed; first compound 0.8 µM
  relative viability: 0.306
Apatinib + Pemetrexed; first compound 2.53 µM
  relative viability: 0.29
Apatinib + Pemetrexed; first compound 8 µM
  relative viability: 0.256
Apatinib + Tozasertib; first compound 0.08 µM
  relative viability: 0.453
Apatinib + Tozasertib; first compound 0.253 µM
  relative viability: 0.461
Apatinib + Tozasertib; first compound 0.8 µM
  relative viability: 0.393
Apatinib + Tozasertib; first compound 2.53 µM
  relative viability: 0.333
Apatinib + Tozasertib; first compound 8 µM
  relative viability: 0.281
Metformin + Dasatinib; first compound 10 µM
  relative viability: 0.602
Metformin + Dasatinib; first compound 31.62 µM
  relative viability: 0.48
Metformin + Dasatinib; first compound 100 µM
  relative viability: 0.359
Metformin + Dasatinib; first compound 316.23 µM
  relative viability: 0.41
Metformin + Dasatinib; first compound 1000 µM
  relative viability: 0.415

## LXF-289
Apatinib + Bortezomib; first compound 0.08 µM
  relative viability: 1.02
Apatinib + Bortezomib; first compound 0.253 µM
  relative viability: 0.983
Apatinib + Bortezomib; first compound 0.8 µM
  relative viability: 0.984
Apatinib + Bortezomib; first compound 2.53 µM
  relative viability: 0.936
Apatinib + Bortezomib; first compound 8 µM
  relative viability: 0.96
Apatinib + Pemetrexed; first compound 0.08 µM
  relative viability: 0.916
Apatinib + Pemetrexed; first compound 0.253 µM
  relative viability: 0.908
Apatinib + Pemetrexed; first compound 0.8 µM
  relative viability: 0.818
Apatinib + Pemetrexed; first compound 2.53 µM
  relative viability: 0.692
Apatinib + Pemetrexed; first compound 8 µM
  relative viability: 0.886
Apatinib + Tozasertib; first compound 0.08 µM
  relative viability: 0.211
Apatinib + Tozasertib; first compound 0.253 µM
  relative viability: 0.247
Apatinib + Tozasertib; first compound 0.8 µM
  relative viability: 0.171
Apatinib + Tozasertib; first compound 2.53 µM
  relative viability: 0.175
Apatinib + Tozasertib; first compound 8 µM
  relative viability: 0.132
Metformin + Dasatinib; first compound 10 µM
  relative viability: 0.186
Metformin + Dasatinib; first compound 31.62 µM
  relative viability: 0.188
Metformin + Dasatinib; first compound 100 µM
  relative viability: 0.188
Metformin + Dasatinib; first compound 316.23 µM
  relative viability: 0.137
Metformin + Dasatinib; first compound 1000 µM
  relative viability: 0.236

## LC-2-ad
Apatinib + Bortezomib; first compound 0.08 µM
  relative viability: 0.937
Apatinib + Bortezomib; first compound 0.253 µM
  relative viability: 1.15
Apatinib + Bortezomib; first compound 0.8 µM
  relative viability: 1.22
Apatinib + Bortezomib; first compound 2.53 µM
  relative viability: 0.946
Apatinib + Bortezomib; first compound 8 µM
  relative viability: 0.832
Apatinib + Pemetrexed; first compound 0.08 µM
  relative viability: 0.248
Apatinib + Pemetrexed; first compound 0.253 µM
  relative viability: 0.299
Apatinib + Pemetrexed; first compound 0.8 µM
  relative viability: 0.259
Apatinib + Pemetrexed; first compound 2.53 µM
  relative viability: 0.267
Apatinib + Pemetrexed; first compound 8 µM
  relative viability: 0.233
Apatinib + Tozasertib; first compound 0.08 µM
  relative viability: 0.516
Apatinib + Tozasertib; first compound 0.253 µM
  relative viability: 0.522
Apatinib + Tozasertib; first compound 0.8 µM
  relative viability: 0.466
Apatinib + Tozasertib; first compound 2.53 µM
  relative viability: 0.462
Apatinib + Tozasertib; first compound 8 µM
  relative viability: 0.446
Metformin + Dasatinib; first compound 31.62 µM
  relative viability: 0.598
Metformin + Dasatinib; first compound 100 µM
  relative viability: 0.606
Metformin + Dasatinib; first compound 316.23 µM
  relative viability: 0.372
Metformin + Dasatinib; first compound 1000 µM
  relative viability: 0.44

## NCI-H2085
Apatinib + Bortezomib; first compound 0.08 µM
  relative viability: 1.1
Apatinib + Bortezomib; first compound 0.253 µM
  relative viability: 0.831
Apatinib + Bortezomib; first compound 0.8 µM
  relative viability: 1.06
Apatinib + Bortezomib; first compound 2.53 µM
  relative viability: 1.13
Apatinib + Bortezomib; first compound 8 µM
  relative viability: 1.04
Apatinib + Pemetrexed; first compound 0.08 µM
  relative viability: 0.949
Apatinib + Pemetrexed; first compound 0.253 µM
  relative viability: 0.777
Apatinib + Pemetrexed; first compound 0.8 µM
  relative viability: 0.876
Apatinib + Pemetrexed; first compound 2.53 µM
  relative viability: 0.823
Apatinib + Pemetrexed; first compound 8 µM
  relative viability: 0.782
Apatinib + Tozasertib; first compound 0.08 µM
  relative viability: 0.844
Apatinib + Tozasertib; first compound 0.253 µM
  relative viability: 0.767
Apatinib + Tozasertib; first compound 0.8 µM
  relative viability: 0.726
Apatinib + Tozasertib; first compound 2.53 µM
  relative viability: 0.379
Apatinib + Tozasertib; first compound 8 µM
  relative viability: 0.406
Metformin + Dasatinib; first compound 10 µM
  relative viability: 0.327
Metformin + Dasatinib; first compound 31.62 µM
  relative viability: 0.336
Metformin + Dasatinib; first compound 100 µM
  relative viability: 0.333
Metformin + Dasatinib; first compound 316.23 µM
  relative viability: 0.306
Metformin + Dasatinib; first compound 1000 µM
  relative viability: 0.358

## RERF-LC-KJ
Apatinib + Bortezomib; first compound 0.08 µM
  relative viability: 1.03
Apatinib + Bortezomib; first compound 0.253 µM
  relative viability: 0.99
Apatinib + Bortezomib; first compound 0.8 µM
  relative viability: 1.04
Apatinib + Bortezomib; first compound 2.53 µM
  relative viability: 1.05
Apatinib + Bortezomib; first compound 8 µM
  relative viability: 1.05
Apatinib + Pemetrexed; first compound 0.08 µM
  relative viability: 0.493
Apatinib + Pemetrexed; first compound 0.253 µM
  relative viability: 0.466
Apatinib + Pemetrexed; first compound 0.8 µM
  relative viability: 0.381
Apatinib + Pemetrexed; first compound 2.53 µM
  relative viability: 0.451
Apatinib + Pemetrexed; first compound 8 µM
  relative viability: 0.327
Apatinib + Tozasertib; first compound 0.08 µM
  relative viability: 0.538
Apatinib + Tozasertib; first compound 0.253 µM
  relative viability: 0.428
Apatinib + Tozasertib; first compound 0.8 µM
  relative viability: 0.393
Apatinib + Tozasertib; first compound 2.53 µM
  relative viability: 0.326
Apatinib + Tozasertib; first compound 8 µM
  relative viability: 0.293
Metformin + Dasatinib; first compound 10 µM
  relative viability: 0.689
Metformin + Dasatinib; first compound 31.62 µM
  relative viability: 0.709
Metformin + Dasatinib; first compound 100 µM
  relative viability: 0.613
Metformin + Dasatinib; first compound 316.23 µM
  relative viability: 0.462
Metformin + Dasatinib; first compound 1000 µM
  relative viability: 0.534

## LOU-NH91
Apatinib + Bortezomib; first compound 0.08 µM
  relative viability: 0.466
Apatinib + Bortezomib; first compound 0.253 µM
  relative viability: 0.492
Apatinib + Bortezomib; first compound 0.8 µM
  relative viability: 0.543
Apatinib + Bortezomib; first compound 2.53 µM
  relative viability: 0.443
Apatinib + Bortezomib; first compound 8 µM
  relative viability: 0.476
Apatinib + Pemetrexed; first compound 0.08 µM
  relative viability: 0.418
Apatinib + Pemetrexed; first compound 0.253 µM
  relative viability: 0.396
Apatinib + Pemetrexed; first compound 0.8 µM
  relative viability: 0.424
Apatinib + Pemetrexed; first compound 2.53 µM
  relative viability: 0.336
Apatinib + Pemetrexed; first compound 8 µM
  relative viability: 0.303
Apatinib + Tozasertib; first compound 0.08 µM
  relative viability: 0.741
Apatinib + Tozasertib; first compound 0.253 µM
  relative viability: 0.729
Apatinib + Tozasertib; first compound 0.8 µM
  relative viability: 0.618
Apatinib + Tozasertib; first compound 2.53 µM
  relative viability: 0.601
Apatinib + Tozasertib; first compound 8 µM
  relative viability: 0.546
Metformin + Dasatinib; first compound 10 µM
  relative viability: 0.576
Metformin + Dasatinib; first compound 31.62 µM
  relative viability: 0.491
Metformin + Dasatinib; first compound 100 µM
  relative viability: 0.498
Metformin + Dasatinib; first compound 316.23 µM
  relative viability: 0.538
Metformin + Dasatinib; first compound 1000 µM
  relative viability: 0.499

## NCI-H2009
Apatinib + Bortezomib; first compound 0.08 µM
  relative viability: 1.09
Apatinib + Bortezomib; first compound 0.253 µM
  relative viability: 0.955
Apatinib + Bortezomib; first compound 0.8 µM
  relative viability: 0.954
Apatinib + Bortezomib; first compound 2.53 µM
  relative viability: 0.714
Apatinib + Bortezomib; first compound 8 µM
  relative viability: 0.574
Apatinib + Pemetrexed; first compound 0.08 µM
  relative viability: 1.07
Apatinib + Pemetrexed; first compound 0.253 µM
  relative viability: 0.996
Apatinib + Pemetrexed; first compound 0.8 µM
  relative viability: 0.902
Apatinib + Pemetrexed; first compound 2.53 µM
  relative viability: 0.879
Apatinib + Pemetrexed; first compound 8 µM
  relative viability: 0.661
Apatinib + Tozasertib; first compound 0.08 µM
  relative viability: 0.856
Apatinib + Tozasertib; first compound 0.253 µM
  relative viability: 0.792
Apatinib + Tozasertib; first compound 0.8 µM
  relative viability: 0.687
Apatinib + Tozasertib; first compound 2.53 µM
  relative viability: 0.58
Apatinib + Tozasertib; first compound 8 µM
  relative viability: 0.38
Metformin + Dasatinib; first compound 10 µM
  relative viability: 0.503
Metformin + Dasatinib; first compound 31.62 µM
  relative viability: 0.522
Metformin + Dasatinib; first compound 100 µM
  relative viability: 0.483
Metformin + Dasatinib; first compound 316.23 µM
  relative viability: 0.401
Metformin + Dasatinib; first compound 1000 µM
  relative viability: 0.467

## UMC-11
Apatinib + Bortezomib; first compound 0.08 µM
  relative viability: 1.01
Apatinib + Bortezomib; first compound 0.253 µM
  relative viability: 0.728
Apatinib + Bortezomib; first compound 0.8 µM
  relative viability: 0.722
Apatinib + Bortezomib; first compound 2.53 µM
  relative viability: 0.623
Apatinib + Bortezomib; first compound 8 µM
  relative viability: 0.67
Apatinib + Pemetrexed; first compound 0.08 µM
  relative viability: 0.783
Apatinib + Pemetrexed; first compound 0.253 µM
  relative viability: 0.771
Apatinib + Pemetrexed; first compound 0.8 µM
  relative viability: 0.716
Apatinib + Pemetrexed; first compound 2.53 µM
  relative viability: 0.663
Apatinib + Pemetrexed; first compound 8 µM
  relative viability: 0.433
Apatinib + Tozasertib; first compound 0.08 µM
  relative viability: 0.193
Apatinib + Tozasertib; first compound 0.253 µM
  relative viability: 0.194
Apatinib + Tozasertib; first compound 0.8 µM
  relative viability: 0.198
Apatinib + Tozasertib; first compound 2.53 µM
  relative viability: 0.211
Apatinib + Tozasertib; first compound 8 µM
  relative viability: 0.198
Metformin + Dasatinib; first compound 10 µM
  relative viability: 0.528
Metformin + Dasatinib; first compound 31.62 µM
  relative viability: 0.482
Metformin + Dasatinib; first compound 100 µM
  relative viability: 0.546
Metformin + Dasatinib; first compound 316.23 µM
  relative viability: 0.447
Metformin + Dasatinib; first compound 1000 µM
  relative viability: 0.45
